According to PubChem BioAssay AID1963424 (Molecular Pharmacology Branch, DTP, NCI, 2024):
Values joined by “and” are separate entries in the source; they are usually repeats but may differ in a detail not shown here. Equal values may be shown once.

System: 327498-153-R-J2-PDC complex spheroid growth, % test/control
Experiment: Anticancer human tumor 327498-153-R-J2-PDC patient-derived uterine carcinosarcoma cell line growth inhibition [Asc]
Conditions: for viability, T/C: stronger effect = lower value
In short: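 Spheroid model: tumor line + HUVEC + hMSC. Single agents and combinations; top conc. at/near clinical Cmax (10 microM if undetermined), half-log dilutions. DMSO stocks at 800-fold test concentration.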

[1] = curve of first compound, second compound 0.1 µM
[2] = curve of first compound, second compound 0.316 µM
[3] = curve of first compound, second compound 1 µM
[4] = second compound 0.1 µM, first compound 0.0316 µM
[5] = second compound 0.1 µM, first compound 0.1 µM
[6] = second compound 0.1 µM, first compound 0.316 µM
[7] = second compound 0.1 µM, first compound 1 µM
[8] = second compound 0.316 µM, first compound 0.0316 µM
[9] = second compound 0.316 µM, first compound 0.1 µM
[10] = second compound 0.316 µM, first compound 0.316 µM
[11] = second compound 0.316 µM, first compound 1 µM
[12] = second compound 1 µM, first compound 0.0316 µM
[13] = second compound 1 µM, first compound 0.1 µM
[14] = second compound 1 µM, first compound 0.316 µM
[15] = second compound 1 µM, first compound 1 µM
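Also: spheroids exposed to compound for 7 days after 3 days of growth.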
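For viability, T/C in this document: 100% = DMSO vehicle control wells.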

In the case of `Cc1nc(N2CCC3(CC2)COC(C)C3N)c(CO)nc1Sc1ccnc(N)c1Cl` (centres undefined) + CCN1C(C(=O)NC23CCC(C(=O)O)(CC2)CC3)C(c2cccc(Cl)c2F)C2(C(=O)Nc3cc(Cl)ccc32)C12CCCCC2, the IC50 (curve of first compound, second compound 0.03 µM) is reported as 242 nM, the IC50 (curve of first compound, second compound 0.0949 µM) is reported as 48.4 nM and the IC50 (curve of first compound, second compound 0.3 µM) is reported as under 9.49 nM. It also gave an IC50 (curve of first compound, second compound 0.949 µM) of under 9.49 nM, an IC50 (curve of first compound, second compound 3 µM) of under 9.49 nM and a viability, T/C (second compound 0.03 µM, first compound 0.00949 µM) of 79.9%. The viability, T/C (second compound 0.03 µM, first compound 0.03 µM) was 74.8%, the viability, T/C (second compound 0.03 µM, first compound 0.0949 µM) was 64.1% and the viability, T/C (second compound 0.03 µM, first compound 0.3 µM) was 44%. For the same compound, the viability, T/C (second compound 0.03 µM, first compound 0.949 µM) was 41%, the viability, T/C (second compound 0.03 µM, first compound 3 µM) was 30.3% and the viability, T/C (second compound 0.0949 µM, first compound 0.00949 µM) was 57%. It also gave a viability, T/C (second compound 0.0949 µM, first compound 0.03 µM) of 58%, a viability, T/C (second compound 0.0949 µM, first compound 0.0949 µM) of 41.3% and a viability, T/C (second compound 0.0949 µM, first compound 0.3 µM) of 27.8%. For the same compound, the viability, T/C (second compound 0.0949 µM, first compound 0.949 µM) was 22.2%, the viability, T/C (second compound 0.0949 µM, first compound 3 µM) was 15.7% and the viability, T/C (second compound 0.3 µM, first compound 0.00949 µM) was 30.7%. The viability, T/C (second compound 0.3 µM, first compound 0.03 µM) was 24.3%, the viability, T/C (second compound 0.3 µM, first compound 0.0949 µM) was 13.7% and the viability, T/C (second compound 0.3 µM, first compound 0.3 µM) was 12.3%. The viability, T/C (second compound 0.3 µM, first compound 0.949 µM) was 8.52%, the viability, T/C (second compound 0.3 µM, first compound 3 µM) was 6.36% and the viability, T/C (second compound 0.949 µM, first compound 0.00949 µM) was 6.38%. It also gave a viability, T/C (second compound 0.949 µM, first compound 0.03 µM) of 6.83%, a viability, T/C (second compound 0.949 µM, first compound 0.0949 µM) of 2.73% and a viability, T/C (second compound 0.949 µM, first compound 0.3 µM) of 11.8%. For the same compound, the viability, T/C (second compound 0.949 µM, first compound 0.949 µM) was 2.12%, the viability, T/C (second compound 0.949 µM, first compound 3 µM) was 2.01% and the viability, T/C (second compound 3 µM, first compound 0.00949 µM) was 2.07%. The viability, T/C (second compound 3 µM, first compound 0.03 µM) was 2.17%, the viability, T/C (second compound 3 µM, first compound 0.0949 µM) was 2.3% and the viability, T/C (second compound 3 µM, first compound 0.3 µM) was 2.57%. It also gave a viability, T/C (second compound 3 µM, first compound 0.949 µM) of 0.76% and a viability, T/C (second compound 3 µM, first compound 3 µM) of 0.83%.

For `O=C(c1cc(Cc2n[nH]c(=O)c3ccccc23)ccc1F)N1CCN(C(=O)C2CC2)CC1`, the viability, T/C (compound 0.0316 µM) was 86.5% and 104% and 109%, the viability, T/C (compound 0.1 µM) was 89.6% and 99.6% and 105% and the viability, T/C (compound 0.316 µM) was 92.9% and 93.8% and 98%. For the same compound, the viability, T/C (compound 1 µM) was 78.8% and 89.2% and 93.4%, the viability, T/C (compound 3.16 µM) was 58.8% and 71.2% and 71.8% and the viability, T/C (compound 10 µM) was 18.3% and 19.8% and 20.8%. The IC50 (curve of compound) was 4010 nM and 5010 nM and 5130 nM.

Work on `C=C(F)C(=O)N1CCN(c2nc(OCC3CCCN3C)nc3c2CCN(c2cccc4cccc(Cl)c24)C3)CC1CC#N` (centres undefined) + Cc1c(S(C)(=O)=O)c(-c2cc(F)cc(N3CCN(c4ccc(NS(=O)(=O)c5ccc(NC(CCN6CCC(C(=O)OCCCP(=O)(O)O)CC6)CSc6ccccc6)c(S(=O)(=O)C(F)(F)F)c5)cc4)CC3)c2)c(-c2ccc(Cl)cc2)n1C(C)C yielded an IC50 [1] of 756 nM, an IC50 [2] of 633 nM and an IC50 [3] of 546 nM. The IC50 (curve of first compound, second compound 3.16 µM) was 512 nM, the IC50 (curve of first compound, second compound 10 µM) was 1590 nM and the viability, T/C [4] was 63%. It also gave a viability, T/C [5] of 57.9%, a viability, T/C [6] of 62.2% and a viability, T/C [7] of 46.4%. It also gave a viability, T/C (second compound 0.1 µM, first compound 3.16 µM) of 5.7%, a viability, T/C (second compound 0.1 µM, first compound 10 µM) of 0.14% and a viability, T/C [8] of 66.6%. The viability, T/C [9] was 63.4%, the viability, T/C [10] was 56% and the viability, T/C [11] was 43.6%. For the same compound, the viability, T/C (second compound 0.316 µM, first compound 3.16 µM) was 3.41%, the viability, T/C (second compound 0.316 µM, first compound 10 µM) was 0.12% and the viability, T/C [12] was 63.9%. For the same compound, the viability, T/C [13] was 58.5%, the viability, T/C [14] was 55.9% and the viability, T/C [15] was 40.8%. The viability, T/C (second compound 1 µM, first compound 3.16 µM) was 3.33%, the viability, T/C (second compound 1 µM, first compound 10 µM) was 0.11% and the viability, T/C (second compound 3.16 µM, first compound 0.0316 µM) was 68.1%. For the same compound, the viability, T/C (second compound 3.16 µM, first compound 0.1 µM) was 60.1%, the viability, T/C (second compound 3.16 µM, first compound 0.316 µM) was 50.7% and the viability, T/C (second compound 3.16 µM, first compound 1 µM) was 41.3%. For the same compound, the viability, T/C (second compound 3.16 µM, first compound 3.16 µM) was 2.02%, the viability, T/C (second compound 3.16 µM, first compound 10 µM) was 0.12% and the viability, T/C (second compound 10 µM, first compound 0.0316 µM) was 164%. It also gave a viability, T/C (second compound 10 µM, first compound 0.1 µM) of 150%, a viability, T/C (second compound 10 µM, first compound 0.316 µM) of 130% and a viability, T/C (second compound 10 µM, first compound 1 µM) of 82%. The viability, T/C (second compound 10 µM, first compound 3.16 µM) was 3.02% and the viability, T/C (second compound 10 µM, first compound 10 µM) was 0.19%.

With `NC(=O)C(=Cn1cnc(-c2cc(C(F)(F)F)cc(C(F)(F)F)c2)n1)c1cncnc1` the viability, T/C (compound 0.000949 µM) was 89.1% and 91.1% and 101%, the viability, T/C (compound 0.003 µM) was 102% and 93.5% and 96.2% and the viability, T/C (compound 0.00949 µM) was 83.6% and 84.6% and 93.2%. The viability, T/C (compound 0.03 µM) was 71.5% and 61.5% and 78%, the viability, T/C (compound 0.0949 µM) was 14.8% and 17.4% and 17.2% and the viability, T/C (compound 0.3 µM) was 3.13% and 3.94%. For the same compound, the IC50 (curve of compound) was 45.9 nM and 40.1 nM and 50.9 nM.

`O=C(c1ccc(F)c(F)c1Nc1ccc(I)cc1F)N1CC(O)([C@@H]2CCCCN2)C1` + CNC(C)C(=O)NC1CN(S(=O)(=O)c2cccc(S(=O)(=O)N3CCC4CCC(C(=O)NC(c5ccccc5)c5ccccc5)N4C(=O)C(NC(=O)C(C)NC)C3)c2)CCC2CCC(C(=O)NC(c3ccccc3)c3ccccc3)N2C1=O gave an IC50 (curve of first compound, second compound 0.01 µM) of 391 nM, an IC50 (curve of first compound, second compound 0.0316 µM) of 377 nM and an IC50 [1] of 377 nM. For the same compound, the IC50 [2] was 304 nM, the IC50 [3] was 430 nM and the viability, T/C (second compound 0.01 µM, first compound 0.00316 µM) was 97.4%. For the same compound, the viability, T/C (second compound 0.01 µM, first compound 0.01 µM) was 91.9%, the viability, T/C (second compound 0.01 µM, first compound 0.0316 µM) was 81.7% and the viability, T/C (second compound 0.01 µM, first compound 0.1 µM) was 78.5%. The viability, T/C (second compound 0.01 µM, first compound 0.316 µM) was 55.7%, the viability, T/C (second compound 0.01 µM, first compound 1 µM) was 23.5% and the viability, T/C (second compound 0.0316 µM, first compound 0.00316 µM) was 104%. For the same compound, the viability, T/C (second compound 0.0316 µM, first compound 0.01 µM) was 98.6%, the viability, T/C (second compound 0.0316 µM, first compound 0.0316 µM) was 89% and the viability, T/C (second compound 0.0316 µM, first compound 0.1 µM) was 76.4%. For the same compound, the viability, T/C (second compound 0.0316 µM, first compound 0.316 µM) was 55.7%, the viability, T/C (second compound 0.0316 µM, first compound 1 µM) was 22.9% and the viability, T/C (second compound 0.1 µM, first compound 0.00316 µM) was 104%. The viability, T/C (second compound 0.1 µM, first compound 0.01 µM) was 88%, the viability, T/C [4] was 85.8% and the viability, T/C [5] was 76.8%. It also gave a viability, T/C [6] of 56%, a viability, T/C [7] of 21.9% and a viability, T/C (second compound 0.316 µM, first compound 0.00316 µM) of 105%. It also gave a viability, T/C (second compound 0.316 µM, first compound 0.01 µM) of 102%, a viability, T/C [8] of 77.7% and a viability, T/C [9] of 75.7%. The viability, T/C [10] was 48.2%, the viability, T/C [11] was 22.6% and the viability, T/C (second compound 1 µM, first compound 0.00316 µM) was 104%. It also gave a viability, T/C (second compound 1 µM, first compound 0.01 µM) of 92.9%, a viability, T/C [12] of 92.3% and a viability, T/C [13] of 80.9%. The viability, T/C [14] was 62.5% and the viability, T/C [15] was 20%.
